Data reported in PMC12101129, “An optimized CYP3A4-activatable fluorogenic sensor for in situ functional imaging and multi-dimensional inhibitor assessment” (Chemical Science, 2025).
Read-outs that look alike come from different tables or passages of the source.

Tests used:
[1] = Phase II metabolic stability in HLMs; type: in vitro ADME; conditions: human, liver microsomes, read-out: phase II metabolic stability t1/2
[2] = target: T1, NCN 4-hydroxylation in HLMs (Homo sapiens, UniProt P08684); assay: Chemical inhibition assays of NCN 4-hydroxylation in HLMs; type: biochemical
T1 construct: tissue Bioreclamation IVT lot No. X008067; host or cells: pooled human liver microsomes from 50 donors
T1 sequence (P08684 whole entry): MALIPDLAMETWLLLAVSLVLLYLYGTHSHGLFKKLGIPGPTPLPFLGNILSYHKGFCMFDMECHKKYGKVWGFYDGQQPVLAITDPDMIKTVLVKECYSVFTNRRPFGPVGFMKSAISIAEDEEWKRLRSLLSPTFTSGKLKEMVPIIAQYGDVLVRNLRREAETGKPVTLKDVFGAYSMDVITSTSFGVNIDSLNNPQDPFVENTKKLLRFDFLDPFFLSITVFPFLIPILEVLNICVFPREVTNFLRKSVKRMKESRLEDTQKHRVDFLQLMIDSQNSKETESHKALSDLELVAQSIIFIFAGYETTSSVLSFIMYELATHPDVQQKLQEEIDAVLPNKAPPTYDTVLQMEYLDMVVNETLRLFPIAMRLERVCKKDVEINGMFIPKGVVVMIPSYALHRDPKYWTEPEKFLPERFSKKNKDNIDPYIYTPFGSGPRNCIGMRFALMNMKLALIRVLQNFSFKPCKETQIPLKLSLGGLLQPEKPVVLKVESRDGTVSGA

human P-glycoprotein = target: T2, human P-glycoprotein (Homo sapiens, UniProt P08183); assay: P-gp transporter assay in MDR1-MDCK cells with or without verapamil; type: in vitro ADME; conditions: for intracellular level in the presence of verapamil: MDR1-MDCK cells, with versus without verapamil
T2 construct: expressed in transfected cells; host or cells: MDR1-MDCK
T2 sequence (P08183 whole entry): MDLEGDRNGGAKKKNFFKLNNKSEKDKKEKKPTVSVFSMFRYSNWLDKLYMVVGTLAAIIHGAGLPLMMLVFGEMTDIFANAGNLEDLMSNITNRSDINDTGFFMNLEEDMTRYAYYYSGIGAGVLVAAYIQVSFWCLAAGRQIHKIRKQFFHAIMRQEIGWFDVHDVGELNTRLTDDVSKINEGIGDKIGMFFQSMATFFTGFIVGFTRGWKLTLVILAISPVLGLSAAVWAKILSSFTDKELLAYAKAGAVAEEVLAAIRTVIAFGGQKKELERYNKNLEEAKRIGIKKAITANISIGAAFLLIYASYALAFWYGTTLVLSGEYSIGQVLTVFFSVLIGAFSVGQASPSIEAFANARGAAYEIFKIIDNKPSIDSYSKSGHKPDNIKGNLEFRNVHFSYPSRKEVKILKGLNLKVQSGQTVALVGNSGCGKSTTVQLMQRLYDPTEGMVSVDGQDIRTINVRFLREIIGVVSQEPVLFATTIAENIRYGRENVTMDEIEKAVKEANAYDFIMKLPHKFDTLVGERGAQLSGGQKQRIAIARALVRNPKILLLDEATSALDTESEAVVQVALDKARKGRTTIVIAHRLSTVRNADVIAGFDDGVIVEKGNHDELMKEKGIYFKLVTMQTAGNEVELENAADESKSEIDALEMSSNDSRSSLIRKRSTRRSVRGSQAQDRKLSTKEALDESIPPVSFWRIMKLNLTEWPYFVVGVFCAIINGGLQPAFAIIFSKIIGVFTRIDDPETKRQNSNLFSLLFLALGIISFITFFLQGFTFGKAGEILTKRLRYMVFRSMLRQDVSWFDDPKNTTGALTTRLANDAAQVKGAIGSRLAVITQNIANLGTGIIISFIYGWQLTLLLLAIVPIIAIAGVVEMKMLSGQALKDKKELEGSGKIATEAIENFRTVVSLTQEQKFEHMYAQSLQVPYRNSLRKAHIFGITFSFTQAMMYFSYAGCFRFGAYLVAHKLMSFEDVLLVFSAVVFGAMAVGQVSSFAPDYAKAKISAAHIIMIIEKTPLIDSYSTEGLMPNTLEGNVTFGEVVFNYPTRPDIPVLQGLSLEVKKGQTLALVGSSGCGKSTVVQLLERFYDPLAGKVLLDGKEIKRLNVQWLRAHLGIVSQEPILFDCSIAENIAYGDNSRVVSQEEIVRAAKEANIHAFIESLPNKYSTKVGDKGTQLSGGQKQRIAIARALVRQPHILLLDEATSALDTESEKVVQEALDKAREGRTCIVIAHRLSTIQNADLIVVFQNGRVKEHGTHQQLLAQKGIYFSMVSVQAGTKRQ
Method: 1.10. P-gp transporter assay
To test whether NCN is pumped extracellularly by P-gp, MDR1-MDCK cells (a transfected cell line overexpressing human P-glycoprotein) were seeded in 96-well plates supplemented with DMEM media with 10% FBS. Then, verapamil (a potent P-gp inhibitor, 100 μL) was added to 96-well plates and cultured for 15 min. After that, the cells were treated with NCN/Rhodamine 123 (100 μL) for 2 h. The cells were collected and washed with PBS, and lysed by 200 µL ice-cold acetonitrile. Next, the cell supernatant was collected by centrifugation at 20,000 g, 4 °C for 30 min. The content of NCN in the cells was determined. […]

[3] = In vivo inhibitory effect of ketoconazole on NCN pharmacokinetics; conditions: rats; for AUC(0-inf) / Cmax / half-life: rat, plasma, po, 20 mg/kg, NCN 20 mg/kg i.g.
Method: Twelve rats were randomly divided into two groups (CMC-Na + NCN group, […]
ketoconazole + NCN group).
50 mg/kg, respectively. Firstly, blank blood samples were collected. Then, ketoconazole or CMC-Na (control group) was administered orally. After 30 min, NCN was administered orally and blood samples were collected at the following time points […]
5-fold volume of acetonitrile.
1.21. Statistical analysis
All data are expressed as the mean ± standard deviation. The Km, Vmax, and IC50 values were determined via non-linear regression analysis using GraphPad Prism software. All statistical analyses were carried out using GraphPad Prism software (GraphPad Prism 8.0), and Origin (2025).

[4] = Effect of pH on fluorescence response of HNCN; type: physicochemical
Hep3B cells [5] = assay: CCK-8 cytotoxicity assay; type: cell-based
NCM460 cells = assay: Cell-membrane permeability assay in NCM460 cells; type: in vitro ADME
Hep3B cells [6] = assay: Cell-membrane permeability assay in Hep3B cells; type: in vitro ADME; conditions: for Cell-membrane penetration: 20 μM, 1 h
Method: 1.9. Cell-membrane permeability assay
Hep3B cells were cultured with the DMEM media supplemented with 10% fetal bovine serum (FBS) in a humidified culture chamber at 37 °C with 95% air and 5%
CO2. The cells were trypsinized and resuspended with the DMEM basal medium at a […]
200 μL cell suspension was incubated with NCN (20 μM) at 37 °C for 1 h. Then, the cells were centrifuged (1000 rpm, 3 min), resuspended in DMEM media, and centrifuged again. Next, the cells were lysed with ice-cold methanol (200 μL) and centrifuged (20000 g, 30 min, 4 °C). The content of NCN in the supernatant was determined. […]

CYP3A4 [7] = target: T3, CYP3A4 (Homo sapiens, UniProt P08684); set-up: endogenous in cells; host or cells: Hep3B; conditions: cited from earlier work; for Km: CYP3A4, previously reported probe
T3 sequence (P08684 whole entry): as the sequence (P08684 whole entry) above

[8] = test system: human liver microsomes (HLMs)
CYP3A4 [9] = target: T3, CYP3A4; assay: Fluorescence response of NCN to CYP3A4 (NCN 4-hydroxylation); type: biochemical; set-up: purchased Cypex
[10] = test system: human liver microsomes (HLMs); assay: Oxidative metabolism of candidate substrates in HLMs (fluorescent product formation); conditions: for fluorescence activation following oxidative metabolism: 30 min
[11] = Bio-safety (tolerability) assessment of NCN in healthy mice; type: in vivo
Method: 1.15. Bio-safety assessment of NCN in healthy mice
Sixteen C57BL/6J mice (8 males and 8 females, 6 weeks) were randomly assigned into two groups (4 males and 4 females). All mice were subjected to adaptive feeding for 7 d before the experiment. NCN was dissolved in 0.5% CMC-Na, and mice were orally administered NCN (100 mg/kg)/0.5% CMC-Na continuously for 14 d. The mice were weighed every day, and their status was observed. After 14 d, blood and tissues from all mice were obtained for bio-safety assessment. Serum ALT, AST, TP, UREA, CREA, TG, Na+, and K+ levels were tested by using a fully automated serum biochemistry analysis (Thermo, USA). Mice organs were weighed and the organ index was calculated, and hematoxylin and eosin (H&E) stains were provided by Shanghai Ruibaohe Biotechnology Co., Ltd. […]

[12] = test system: human recombinant cytochrome P450 enzymes; assay: P450 reaction phenotyping assay; type: biochemical; conditions: NCN, panel of human P450 enzymes including CYP3A5
Method: (§1) 1.6. P450 reaction phenotyping and chemical inhibition assays
(§2) P450 reaction phenotyping analysis of NCN was determined using a panel of human recombinant cytochrome P450 enzymes, while the inhibitory effects of CYP specific inhibitors on NCN 4-hydroxylation in HLMs were assessed. The final concentration of each human recombinant CYP enzyme in the incubation system was 5 nM. Briefly, each sample was co-incubated with NCN at 37 °C for 30 min, the formation rate of HNCN was determined to assess the metabolic specificity of NCN.
(§3) Gaussian program conducted a GMMX conformational analysis using a DFT/B3LYP/6-31G(d) pre-optimized 3D geometry. The resulting GMMX conformers were optimized at B3LYP/6-31G(d) level. Moreover, all conformers were real minima, as no imaginary vibrational frequencies were found. The energy ranking was performed to find the minimum energy conformer. The minima conformer was optimized at B3LYP /6-311G(d,p) level. The molecular orbital energy levels and electrostatic potential (ESP) were calculated at the DFT/B3LYP/6-311G(d,p) level.
(§4) Frontier orbital and ESP were depicted by Multiwfn (Lu and Chen 2011) and VMD […]
(§5) 1.8. Enzyme kinetic analysis
(§6) The kinetic parameters of NCN 4-hydroxylation in HLMs were determined by performing a set of hydroxylation kinetic assays. Kinetic parameters (K m and Vmax) for NCN 4-hydroxylation were fitted by the following equation (a): […]

[13] = target: T4, human liver microsomes (HLMs) (Homo sapiens, UniProt P08684); assay: Enzyme kinetic analysis of NCN 4-hydroxylation in HLMs; type: biochemical; conditions: Vmax/Km, enzyme source HLMs
T4 construct: tissue Bioreclamation IVT lot No. X008067; host or cells: pooled human liver microsomes from 50 donors
T4 sequence (P08684 whole entry): as above
Method: as §1, §2, §3, §4, §5, §6

[14] = Oral bioavailability of NCN (pharmacokinetics); type: in vivo, SD rats; conditions: Sprague-Dawley, rat, plasma, rats; for AUC(0-inf) / Cmax / Tmax / half-life: n = 5
Method: precipitate the protein. After centrifugation again, the supernatant was determined to
quantify the levels of HNCN.
1.17. Oral bioavailability of NCN
intravenous injection NCN group).
h, and 24 h, respectively.
8 h, 12 h, and 24 h, respectively. […]

[15] = KCZ 50 mg kg^−1 versus control, after oral NCN

O=c1ccc2ccc(O)cc2o1 [7-hydroxycoumarin, reference compound]
half-life [1]: 0.287 h

Nn1nnc2ccccc21 [ABT, 1-aminobenzotriazole]
inhibition of NCN 4-hydroxylation [2]: completely blocking

Cc1ccc(-c2c(-c3nn(C)c4ncnc(N5CC[C@H](N6CCCCC6)C5)c34)cnn2C)cc1 [CYP3cide]
inhibition of NCN 4-hydroxylation [2]: completely blocking

O=C1c2cccc3c(O)ccc(c23)C(=O)N1CC1CC1 [HNCN, N-cyclopropylmethyl-4-hydroxy-1,8-naphthalimide]
P-gp substrate (human P-glycoprotein): non-substrates of P-gp
intracellular level in the presence of verapamil (human P-glycoprotein): unchanged
AUC(0-inf) ([3]; control group (CMC-Na)): 961 ng·h/mL
Cmax ([3]; control group (CMC-Na)): 101 ng/mL
half-life ([3]; control group (CMC-Na)): 1.77 h
AUC(0-inf) ([3]; with KCZ 50 mg kg^−1 i.g.): 245 ng·h/mL
Cmax ([3]; with KCZ 50 mg kg^−1 i.g.): 32 ng/mL
half-life ([3]; with KCZ 50 mg kg^−1 i.g.): 2.88 h
decrease of Cmax by KCZ [3, 15]: 3.16 fold
reduction of AUC(0-inf) by KCZ [3, 15]: 3.92 fold
pH range of stable fluorescence signals [4]: 7.0–11.0
cytotoxicity (Hep3B cells [5]): minimal cytotoxicity
half-life [1]: 1.36 h

CCN1C(=O)c2cccc3cccc(c23)C1=O [NEN, N-ethyl-1,8-naphthalimide, reference compound]
P-gp substrate (human P-glycoprotein): Yes
intracellular level in the presence of verapamil (human P-glycoprotein): significantly enhanced
Cell-membrane penetration (NCM460 cells): 0.99%
Cell-membrane penetration (Hep3B cells [6]): 2.29%
Km (CYP3A4 [7]; ref Ning et al. 2019): 59.8 µM
Vmax (CYP3A4 [7]; previously reported probe, ref Ning et al. 2019): 2.18 nmol/min/nmol

O=C1c2cccc3cccc(c23)C(=O)N1CC1CC1 [Probe 5, N-cyclopropylmethyl-1,8-naphthalimide]
intracellular level in the presence of verapamil (human P-glycoprotein): unchanged
P-gp substrate (human P-glycoprotein; listed as NCN): No and non-substrates of P-gp
metabolites generated [8]: a single oxidative metabolite
AUC(0-inf) ([3]; control group (CMC-Na)): 1520 ng·h/mL
Cmax ([3]; control group (CMC-Na)): 207 ng/mL
half-life ([3]; control group (CMC-Na)): 1.47 h
AUC(0-inf) ([3]; with KCZ 50 mg kg^−1 i.g.): 5840 ng·h/mL
Cmax ([3]; with KCZ 50 mg kg^−1 i.g.): 674 ng/mL
half-life ([3]; with KCZ 50 mg kg^−1 i.g.): 2.3 h
increase of AUC0-inf by KCZ ([3]; KCZ 50 mg kg^−1 versus control): 3.85 fold
increase of Cmax by KCZ ([3]; KCZ 50 mg kg^−1 versus control): 3.26 fold
Cell-membrane penetration (NCM460 cells): 23.76%
enhancement in cell-membrane permeability compared to NEN (NCM460 cells): 23.9 fold
Detection limit (CYP3A4 [9]; CYP3A4 concentration, NCN as substrate): 0.03 nM
fluorescence enhancement (CYP3A4 [9]; NCN 10 μM with CYP3A4 2 nM and NADPH, 30 min, around 555 nm): 125 fold
enhancement in cell-membrane permeability compared to NEN (Hep3B cells [6]): 13.7 fold
Cell-membrane penetration (Hep3B cells [6]): 31.45%
cytotoxicity (Hep3B cells [5]): minimal cytotoxicity
fluorescence activation following oxidative metabolism [10]: noticeable fluorescence activation
toxicity, mortality, morbidity signs ([11]; oral 100 mg kg^−1, 14 consecutive days): no toxicity, mortality, or morbidity signs were observed
histopathological examination of vital organs ([11]; oral 100 mg kg^−1, 14 days): no evidence of lesions or inflammation
serum liver, kidney function and other indicators ([11]; oral 100 mg kg^−1, 14 days): within normal ranges
visceral organ appearance ([11]; oral 100 mg kg^−1, 14 days): normal in color, size, and shape
isozyme specificity [12]: only CYP3A4 could effectively trigger discernible fluorescence enhancement
microsomal CLint [13]: 255 µL/min/mg
AUC(0-inf) ([14]; iv, i.v. 2 mg/kg): 858 ± 120 ng·h/mL
Cmax ([14]; iv, i.v. 2 mg/kg): 1860 ± 477 ng/mL
Tmax ([14]; iv, i.v. 2 mg/kg): 0.083 h
half-life ([14]; iv, i.v. 2 mg/kg): 2.59 ± 0.33 h
bioavailability ([14]; po, 20 mg/kg i.g. versus 2 mg/kg i.v.): 12.9%
AUC(0-inf) ([14]; po, i.g. 20 mg/kg): 1110 ± 208 ng·h/mL
Cmax ([14]; po, i.g. 20 mg/kg): 275 ± 65 ng/mL
Tmax ([14]; po, i.g. 20 mg/kg): 2 ± 0.71 h
half-life ([14]; po, i.g. 20 mg/kg): 1.79 ± 0.41 h

O=C1c2cccc3cccc(c23)C(=O)N1CC1CCC1 [Probe 6]
metabolites generated [8]: multiple metabolites
fluorescence activation following oxidative metabolism [10]: noticeable fluorescence activation

O=C1c2cccc3cccc(c23)C(=O)N1Cc1ccco1 [Probe 15]
metabolites generated [10]: multiple metabolites
fluorescence activation following oxidative metabolism [10]: noticeable fluorescence activation

O=C1c2cccc3cccc(c23)C(=O)N1Cc1ccc(F)cc1 [Probe F8, N-(4-fluorobenzyl)-1,8-naphthalimide, reference compound]
P-gp substrate (human P-glycoprotein): Yes
intracellular level in the presence of verapamil (human P-glycoprotein): significantly enhanced
Cell-membrane penetration (NCM460 cells): 2.09%
Cell-membrane penetration (Hep3B cells [6]): 4.82%
Km (CYP3A4 [7]; ref He et al. 2023): 0.36 µM
Detection limit (CYP3A4 [7]; previously reported probe, ref He et al. 2023): 0.1 nM

CC(C)c1nc(CN(C)C(=O)N[C@H](C(=O)N[C@@H](Cc2ccccc2)C[C@H](O)[C@H](Cc2ccccc2)NC(=O)OCc2cncs2)C(C)C)cs1 [ritonavir, reference compound]
cytotoxicity (Hep3B cells [5]): minimal cytotoxicity
